The values below come from patent US4032536A, “(1H-Benzimidazol-2-yl)carbamates” (Janssen Pharmaceutica N.V., priority 1976, dated 1977).

In experiment [1] the test system is Syphacia muris. Kind of experiment: Activity against Syphacia muris in rats. It counts as in vivo. As to conditions: po, 120 h, orally by gavage, autopsy five days after treatment. As to the method:
A. Activity against Syphacia muris in rats.
(§1) Syphacia muris was selected as a test organism since this organism manifests its relationship with the human oxyuris, Enterobin vermicularis,by its life cycle, by the cyclical period of activity and by laying its eggs in the peri-anal zone. For artificial infections, adhesive cellophane tape is used to recover the eggs from the peri-anal skin and this tape is administered orally to rats. The thus-infected animals are housed in individual cages with food and water ad libitum. The compound to be tested is administered orally by gavage. A sterile saline solution or suspension of the compound is made at various concentrations corresponding to 40, 10, 2.5, 1.25, 0.63, 0.31 and 0.16 mg/kg body weight. Control animals receive the same amount of saline. Five days thereafter the animals are sacrificed. Coecum, colon and rectum are isolated and washed on a sieve of mesh 100. Table I gives the ED50 -values for a number of the compounds of formula (I). The compounds listed therein are not given for the purpose of limiting the invention thereto but only to exemplify the useful anthelmintic properties of all the compounds within the scope of formula (I).

The subject of experiment [2] is Strongyloides ratti. Kind of experiment: Activity against Strongyloides ratti in rats. The format is in vivo. As to conditions: po, young male Wistar rats, orally, treated on day 7 after infection, autopsied day 13, 50% reduction of number of worms vs untreated controls. The procedure:
as §1
B. Activity against Strongyloides ratti in rats.
Young male Wistar rats, weighing about 100 g are used in this test. Infective larvae of Strongyloides ratti are collected from charcoal cultures, put into a beaker with tapwater and stirred magnetically for counting. The rats are infected subcutaneously with about 1000 larvae, treated on day 7 after infection in the same manner as described in experiment A, and autopsied on day 13. The anterior part of the intestine is divided into two sections, each of 10 cm. length and placed inside out on a wood-applicator. These sections are incubated in physiological saline for 4 hours at 37° C. Worms obtained from the sedimentation of incubation saline are sampled and counted under a dissection microscope. In table I are given ED50 -values for a number of compounds of formula (I). These ED50 -values represent the amount of the compound under investigation in mg/kg which reduces the number of worms 50% with respect to the number found in the untreated control animals.

On to `COC(=O)Nc1nc2ccc(C3(c4ccccc4)OCCC(C)O3)cc2[nH]1` (stereo not shown), for which the ED50 in experiment [1] was found to be 40 mg/kg; in experiment [2] it was 1.25 mg/kg.
As to `COC(=O)Nc1nc2ccc(C3(c4cccs4)OCC(C)(C)CO3)cc2[nH]1`, the ED50 in experiment [1] came out at 40 mg/kg; in experiment [2] it was 10 mg/kg.
`COC(=O)Nc1nc2ccc(C3(c4cccs4)OCCC(C)O3)cc2[nH]1` (stereo not shown): the ED50 in experiment [1] and in experiment [2] was 10 mg/kg in each case.
On to `COC(=O)Nc1nc2ccc(C3(c4cccs4)OCC(C)O3)cc2[nH]1` (stereo not shown), for which the ED50 in experiment [1] and in experiment [2] was 10 mg/kg in each case.
Consider `COC(=O)Nc1nc2ccc(C3(c4cccs4)OCCO3)cc2[nH]1`, for which the ED50 in experiment [1] and in experiment [2] was 2.5 mg/kg each time.
With `COC(=O)Nc1nc2ccc(C3(c4cccs4)OC(C)C(C)O3)cc2[nH]1` (stereo not shown), the ED50 in experiment [1] came out at 2.5 mg/kg; in experiment [2] it was 10 mg/kg.
For `COC(=O)Nc1nc2ccc(C3(c4ccccc4)OCC(C)O3)cc2[nH]1` (stereo not shown) the same measures were 2.5 mg/kg and 0.31 mg/kg.
The matching figures for `COC(=O)Nc1nc2ccc(C3(c4ccc(F)cc4)OCCO3)cc2[nH]1`: 5 mg/kg and 0.31 mg/kg.
For `COC(=O)Nc1nc2ccc(C3(c4ccccc4)OCC(C)(C)CO3)cc2[nH]1` the same measures were 10 mg/kg and 2.5 mg/kg.
For `COC(=O)Nc1nc2ccc(C3(c4ccccc4)OC(C)C(C)O3)cc2[nH]1` (stereo not shown), the ED50 in experiment [1] was 2.5 mg/kg; in experiment [2] it was 1.25 mg/kg.
As for `COC(=O)Nc1nc2ccc(C3(c4ccccc4)OCCO3)cc2[nH]1`, the ED50 in experiment [1] was determined as 1.25 mg/kg; in experiment [2] it was 0.63 mg/kg.
